The source of these data is ChEMBL document CHEMBL5653594, “ZD1839 (Iressa): an orally active inhibitor of epidermal growth factor signaling with potential for cancer therapy” (Cancer Res, 2002).

The subject of experiment [1] is A-431. Description: Antitumor activity against human A-431 cells xenografted in Swiss nu/nu mouse assessed as reduction in c-fos mRNA expression at 200 mg/kg measured after 36 hrs by RT-PCR analysis relative to control. It counts as functional. On the set-up: scale not given: the % may be the effect or the level left. In general terms: A xenograft is tissue or cells of one species grown in another, often human tumour cells in immunodeficient mice.

Experiment [2] deals with A-431. Description: Antitumor activity against human A-431 cells xenografted in Swiss nu/nu mouse assessed as reduction in c-fos mRNA expression at 50 mg/kg measured after 36 hrs by RT-PCR analysis relative to control. The class given is functional. On the set-up: scale not given: the % may be the effect or the level left.
Experiment [3] deals with A-431. Description: Antitumor activity against human A-431 cells xenografted in po dosed Swiss nu/nu mouse assessed as reduction in c-fos mRNA expression measured after 4 days by RT-PCR analysis. It counts as functional, organism-based. As to conditions: dose 12.5-200 mg/kg, time 4.0 day.
Experiment [4] has as its system A-431. The experiment can be described thus: Antitumor activity against human A-431 cells xenografted in Swiss nu/nu mouse assessed as c-fos mRNA expression at 50 mg/kg measured after 6 to 36 hrs by RT-PCR analysis relative to control. The class given is functional. As to conditions: time 6-36 hrs.

Bounds are passed on as bounds.

As for `COc1cc2ncnc(Nc3ccc(F)c(Cl)c3)c2cc1OCCCN1CCOCC1` [GEFITINIB], the Activity is greater than 99% in experiment [1], 94% in experiment [2], “Dose-Dependent Effect” in experiment [3] and 5% in experiment [4].
